Test results as given in ChEMBL document CHEMBL1201862, “PubChem BioAssay data set” (2004).
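Compound exposure: 48 hours, 5 concentrations, 96-well plates. At the GI50, growth is halved.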 Calls of active or inactive are those of the source. Rule as the data show it: active = GI50 up to about 1.1 µM and inactive = higher.

Key:
Assay in all cases: NCI anticancer screen, dose series, 48 h
M14 = system: M14
SK-MEL-28 = system: SK-MEL-28
RXF 393 = system: RXF 393
T47D = system: T47D
BT-549 = system: BT-549
MDA-N = system: MDA-N
SW-620 = system: SW-620
UACC-257 = system: UACC-257
NCI-H226 = system: NCI-H226
SN12C = system: SN12C
Hs-578T = system: Hs-578T
CAKI-1 = system: CAKI-1
TK-10 = system: TK-10
KM12 = system: KM12
HCT-15 = system: HCT-15
OVCAR-3 = system: OVCAR-3
OVCAR-8 = system: OVCAR-8
COLO 205 = system: COLO 205
SK-OV-3 = system: SK-OV-3

SMILES | GI50 (M14) | GI50 (SK-MEL-28) | GI50 (RXF 393) | GI50 (T47D) | GI50 (BT-549) | GI50 (MDA-N) | GI50 (SW-620) | GI50 (UACC-257) | GI50 (NCI-H226) | GI50 (SN12C) | GI50 (Hs-578T) | GI50 (CAKI-1) | GI50 (TK-10) | GI50 (KM12) | GI50 (HCT-15) | GI50 (OVCAR-3) | GI50 (OVCAR-8) | GI50 (COLO 205) | GI50 (SK-OV-3)
O=C(c1cc(Cl)ccc1Cl)N1CCN(C(=O)c2cc(Cl)ccc2Cl)CC1 | > 100 µM (inactive) | > 100 µM (inactive) | 67.1 µM (inactive) | 48.8 µM (inactive) | > 100 µM (inactive) | > 100 µM (inactive) | > 100 µM (inactive) | > 100 µM (inactive) | > 100 µM (inactive) | > 100 µM (inactive) | > 100 µM (inactive) | 97.9 µM (inactive) | > 100 µM (inactive) | > 100 µM (inactive) | > 100 µM | > 100 µM (inactive) | 30.2 µM (inactive) |  | 
CCOc1ccc(-n2nnc3c(N)nc(N)nc32)cc1 | > 100 µM (inactive) | > 100 µM (inactive) |  | > 100 µM (inactive) | > 100 µM (inactive) | > 100 µM (inactive) | > 100 µM (inactive) | > 100 µM (inactive) | > 100 µM (inactive) | > 100 µM (inactive) |  | > 100 µM (inactive) | > 100 µM (inactive) | > 100 µM (inactive) | > 100 µM | > 100 µM (inactive) | > 100 µM (inactive) | > 100 µM (inactive) | > 100 µM (inactive)
O=C(NN=C1NCCCN1)c1ccco1 | > 100 µM (inactive) | > 100 µM (inactive) | > 100 µM (inactive) | > 100 µM (inactive) | > 100 µM (inactive) | > 100 µM (inactive) | > 100 µM (inactive) | > 100 µM (inactive) | > 100 µM (inactive) | > 100 µM (inactive) | > 100 µM (inactive) |  | > 100 µM (inactive) | > 100 µM (inactive) | > 100 µM | > 100 µM (inactive) | > 100 µM (inactive) | > 100 µM (inactive) | > 100 µM (inactive)
O=C1C(=Cc2ccc(O)cc2)N=C(c2ccccc2)N1n1c(-c2ccccc2)nc2ccccc2c1=O | > 100 µM (inactive) | 88.9 µM (inactive) |  | 49.8 µM (inactive) | > 100 µM (inactive) | > 100 µM (inactive) | > 100 µM (inactive) | > 100 µM (inactive) | > 100 µM (inactive) | > 10 µM (inactive) | 81.5 µM (inactive) | > 100 µM (inactive) | > 100 µM (inactive) | > 100 µM (inactive) | 38.9 µM |  | > 100 µM (inactive) | > 100 µM (inactive) | > 100 µM (inactive)
Cc1ccccc1[P+](C)(c1ccccc1C)c1ccccc1C | 7.46 µM (inactive) | 11.6 µM (inactive) | 36.9 µM (inactive) | 3.06 µM (inactive) | 7.48 µM (inactive) |  | 13.6 µM (inactive) | 2.58 µM (inactive) | 14.6 µM (inactive) | 14.7 µM (inactive) | 17.8 µM (inactive) |  | 8.26 µM (inactive) |  | 19.9 µM | 7.94 µM (inactive) | 15 µM (inactive) | 10.6 µM (inactive) | 33.2 µM (inactive)
COC(=O)[C@@]12CC3CN(Cc4c1[nH]c1ccccc41)C2CC3=O | > 100 µM (inactive) | > 100 µM (inactive) | > 100 µM (inactive) | > 100 µM (inactive) | > 100 µM (inactive) | > 100 µM (inactive) | > 100 µM (inactive) | > 100 µM (inactive) | > 100 µM (inactive) | > 100 µM (inactive) |  | > 100 µM (inactive) | > 100 µM (inactive) | > 100 µM (inactive) | > 100 µM | > 100 µM (inactive) | > 100 µM (inactive) | > 100 µM (inactive) | > 100 µM (inactive)
NC(Cc1ccc(S(=O)(=O)O)cc1)C(=O)NC(Cc1ccc(S(=O)(=O)O)cc1)C(=O)O (centres undefined) | > 100 µM (inactive) | > 100 µM (inactive) | > 100 µM (inactive) | > 100 µM (inactive) | > 100 µM (inactive) | > 100 µM (inactive) | > 100 µM (inactive) | > 100 µM (inactive) | > 100 µM (inactive) | > 100 µM (inactive) | > 100 µM (inactive) | > 100 µM (inactive) | > 100 µM (inactive) | > 100 µM (inactive) | > 100 µM | > 100 µM (inactive) | > 100 µM (inactive) | > 100 µM (inactive) | 
O=S(=O)(O)c1ccc2c(/N=N\c3ccc(F)cc3)c(O)c(S(=O)(=O)O)cc2c1 | > 100 µM (inactive) | > 100 µM (inactive) | > 100 µM (inactive) | > 100 µM (inactive) | > 100 µM (inactive) | > 100 µM (inactive) | > 100 µM (inactive) | > 100 µM (inactive) |  | > 100 µM (inactive) | > 100 µM (inactive) | > 100 µM (inactive) | > 100 µM (inactive) | > 100 µM (inactive) | > 100 µM | > 100 µM (inactive) | > 100 µM (inactive) | > 100 µM (inactive) | > 100 µM (inactive)
